Assay results as given in patent publication US10154961B2, “Pomegranate oil for preventing and treating neurodegenerative diseases” (Hadasit Medical Research Services and Development Ltd., priority 2012, dated 2018).

Tested on: fibroblast isolated from TgMHu2ME199K mice
Assay type: cell-based

With `CCCC\C=C/C=C/C=C\CCCCCCCC(=O)O` [punicic acid] the “effect on copper toxicity, percentage of cell survival” value was “significantly inhibited the toxic effect of cooper”.
